Measured values published in BindingDB's records for doi:10.7270/Q2D798VP (Broad Institute, 2009).

Target: T1, Zinc finger protein mex-5 (Caenorhabditis elegans, UniProt Q9XUB2)
T1 sequence (Q9XUB2 whole entry): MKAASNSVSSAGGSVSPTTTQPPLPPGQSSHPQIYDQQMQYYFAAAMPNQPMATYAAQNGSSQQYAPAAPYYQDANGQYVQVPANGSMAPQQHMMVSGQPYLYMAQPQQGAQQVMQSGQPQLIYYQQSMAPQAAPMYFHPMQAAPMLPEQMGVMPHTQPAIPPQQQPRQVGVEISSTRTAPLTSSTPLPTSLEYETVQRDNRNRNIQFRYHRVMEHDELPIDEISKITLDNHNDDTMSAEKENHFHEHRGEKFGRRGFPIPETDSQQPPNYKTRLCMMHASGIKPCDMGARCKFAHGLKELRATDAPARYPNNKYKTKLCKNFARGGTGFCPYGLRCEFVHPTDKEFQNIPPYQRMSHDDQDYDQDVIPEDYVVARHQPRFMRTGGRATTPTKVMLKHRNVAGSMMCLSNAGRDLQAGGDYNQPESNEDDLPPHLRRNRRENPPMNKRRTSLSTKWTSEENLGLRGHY
Experiment: MEX-5/TCR-2 RNA interaction inhibitors, dose response, biochemical, C. elegans, fluorescence polarization (AID 1960)

## CC1=NC(c2ccccc2)C(C#N)(C#N)C(C#N)(C#N)C1 (stereo not given) [SMR000037705]
  EC50: 2.46 µM

## COc1cc(OC)c(C2C3=C(CC(C)(C)CC3=O)OC(=N)C2C#N)cc1OC (stereo not given) [SMR000054706]
  EC50: > 300 µM

## C=c1[nH]n(-c2cccc(C(=O)O)c2)c(=O)c1=CC=Cc1ccco1 [SMR000113614]
  EC50: 23.7 µM

## COc1ccc(C=C2CCCC(C(=O)C(F)(F)F)C2=O)cc1 (stereo not given) [SMR000142699]
  EC50: 41.4 µM

## Oc1ccc2ccccc2c1CN=Nc1nnc(-c2ncc[nH]2)c2ccccc12 [SMR000151639]
  EC50: 2.45 µM

## C(=NNC(=Nc1ccccc1)c1ccccn1)c1ccccn1 [SMR000174637]
  EC50: 94.4 µM

## CN1CCC2(CC1)C(C#N)C(=N)NC(=S)C2C#N (stereo not given) [SMR000211480]
  EC50: 8.53 µM

## O=C(c1ccccc1)c1[nH]n(-c2ccccc2)c2c(O)n(-c3ccccc3Cl)c(=O)c1-2 [SMR000212371]
  EC50: > 300 µM

## COc1ccc(N=CCC(=O)c2ccc(C)cc2)cc1OC [SMR000269732]
  EC50: > 300 µM

## CCCCN1C(=O)/C(=C2/Sc3ccccc3N2C)SC1=Nc1nnc[nH]1 [SMR000282142]
  EC50: 39.1 µM

## COC(=O)c1ccc(-n2c(C)cc(CN=Nc3nc(C)cc(=O)[nH]3)c2C)cc1 [SMR000364461]
  EC50: > 300 µM

## O=C(N/N=C/C1C=C(Cl)C=C([N+](=O)[O-])C1=O)c1ccccc1NS(=O)(=O)c1cccs1 (stereo not given) [SMR000364876]
  EC50: 1.56 µM

## Cc1cc(C(=O)NN=CC2C=C(Cl)C=C([N+](=O)[O-])C2=O)[nH]n1 (stereo not given) [SMR000414694]
  EC50: > 300 µM

## O=C1NC(=O)N(CCc2ccccc2)C(=O)C1=CNNC(=O)c1ccccc1 [SMR000433912]
  EC50: 150 µM

## Cn1c(=O)[nH]c(=O)c2c1nc(N=NC=C(Br)Cc1ccccc1)n2CCO [SMR000436442]
  EC50: 55.5 µM

## COc1ccccc1N1C(=O)NC(=O)C(=Cc2c[nH]c3ccccc23)C1=O [SMR000495900]
  EC50: > 300 µM

## Cc1cc(-c2ccccc2)nc(N=NCc2ccc(O)cc2O)n1 [SMR000513422]
  EC50: 54 µM

## Cc1[nH]n(C(N)=S)c(=O)c1N=Nc1c(Cl)cc([N+](=O)[O-])cc1Cl [SMR000514008]
  EC50: 85.9 µM

## CC1(C)CC(=O)C2=C(C1)OC(=N)C(C#N)C2c1ccc2c(c1)OCO2 (stereo not given) [SMR000514966]
  EC50: > 300 µM

## O=C1C=CC(/C=C/c2nc(O)c([N+](=O)[O-])c(=O)[nH]2)C=C1O (stereo not given) [SMR000524347]
  EC50: 179 µM

## c1ccc(C2=NNC(c3ccccn3)N=N2)nc1 (stereo not given) [SMR000549436]
  EC50: 22.4 µM

## CN(C)c1ccc(C=NN(CCC(=O)NC(C)(C)C)C2=NS(=O)(=O)c3ccccc32)cc1 [SMR000556213]
  EC50: 36.3 µM

## O=C1NC(=O)N(c2ccc(F)cc2)C(=O)C1=Cc1c[nH]c2ccccc12 [SMR000556295]
  EC50: > 300 µM

## Cn1cc(C=C2C(=O)NC(=O)N(c3ccccc3)C2=O)c2ccccc21 [SMR000559087]
  EC50: 4.34 µM

## O=C1N=C(N2C=CC(c3ccncc3)C=C2)C(=CN=NC(=O)c2ccccc2O)S1 [SMR000646350]
  EC50: 10.7 µM

## CN(C)[C@@H]1C(=O)C(C(N)=O)C(=O)[C@@]2(O)C(=O)C3C(=O)c4c(O)cccc4[C@@](C)(O)C3C(O)C12 (stereo not given in full) [SMR000875333]
  EC50: 20.5 µM

## C=CC(=O)N1CCCC(n2nc(-c3ccc(Oc4ccccc4)cc3)c3c(N)ncnc32)C1 (stereo not given) [US8497277, 4]
  EC50: > 300 µM

## COC(=O)Cn1cc(C=C2C(=O)NC(=O)N(c3ccccc3)C2=O)c2ccccc21 [[3-(2,4,6-Trioxo-1-phenyl-tetrahydro-pyrimidin-5-ylidenemethyl)-indol-1-yl]-acetic acid methyl ester]
  EC50: 143 µM

## CCOC(=O)c1c(NC=C2C(=O)NC(=S)NC2=O)sc(C)c1C [ethyl 2-[[4,6-bis(oxidanylidene)-2-sulfanylidene-1,3-diazinan-5-yl]methylideneamino]-4,5-dimethyl-thiophene-3-carboxylate]
  EC50: > 300 µM

## COC(=O)c1[nH]c2cc(OC)c(OC)cc2c1CN=Nc1ccccc1 [methyl (3Z)-5,6-dimethoxy-3-[(2-phenylhydrazinyl)methylidene]indole-2-carboxylate]
  EC50: 20.3 µM
